Assay results reported in patent publication US20260373169A1, “SYNERGISTIC COMBINATION FOR THE TREATMENT OF CANCER” (FUNDACIÓN UNIVERSITARIA SAN ANTONIO (UCAM), priority 2023, published 2026).

What was measured:
MCF-7 cells = experiment: Combination index / drug interaction (CompuSyn, Chou-Talalay), MCF-7; format: cell-based, human
Protocol: IC50 values were calculated using GraphPad Prism software.
According to the theory of T. C.

U-87 μMG cells = experiment: MTT cytotoxicity assay, U-87 μMG; details: Homo sapiens, U-87 MG, read-out: U-87 μMG cell survival
Protocol: Glimepiride and its analogs were first prepared as a stock solution in DMSO, and then the drugs were dissolved fresh in culture medium enriched with Tween 80 (final concentration 0.05%).
Human cancer cells (MCF-7, A549 and U-87 μMG) and normal endothelial cells (HMEC-1) were obtained from American Type Cell Culture (Rockville, MD). The cancer cell lines (MCF-7, A549 and U-87 μMG) were cultured as monolayers in Dulbecco's modified Eagle's medium supplemented with 10% (v/v) fetal bovine serum and 1% (v/v) penicillin/streptomycin mixture (10,000 U/mL penicillin and 10 mg/mL streptomycin) in a 100% humidified atmosphere of 5% CO2 and 95% air at 37 °C. […]
The cytotoxic activity of the test compounds against cancer cell lines was tested using the standard MTT (3-(4,5-dimethylthiazol-2-yl)-2,5-diphenyltetrazolium bromide) colorimetric assay. […] Plates were gently shaken at room temperature until the formazan was completely dissolved and read at 540 nm using a microplate reader. With the XTT method, there is no dissolution step in DMSO (XTT is reduced to a highly water-soluble, orange product instead of the insoluble formazan), and the plate is read at 450 nm. […] IC50 values were calculated using GraphPad Prism software. […]
All data are expressed as mean±standard deviation (SD) and presented as a percentage of control (untreated cells) taken as 100%, n=3 (or more). […]

gliomas = details: cited from earlier work
[1] = weekly doses of 20 mg/m^2; cited from earlier work
MDA-MB-231 cells = details: Glibenclamide alone; inhibiting the G1-S phase progression without inducing cell death or differentiation; cited from earlier work
[2] = analog 100-500 μM with Doxorubicin 0.225-0.900 μM, over a wide range of dose combinations

CCCNC(=O)NS(=O)(=O)c1ccc(Cl)cc1 [Chlorpropamide, 1-(4-chlorophenyl) sulfonyl-3-propylurea]
drug interaction with Doxorubicin (MCF-7 cells; [2]): strong or very strong synergy

COc1cccc2c1C(=O)c1c(O)c3c(c(O)c1C2=O)C[C@@](O)(C(=O)CO)C[C@@H]3O[C@H]1C[C@H](N)[C@H](O)[C@H](C)O1 [Doxorubicin, (7S,9S)-7-[(2R,4S,5S,6S)-4-amino-5-hydroxy-6 methyloxan-2-yl]oxy-6,9,11-trihydroxy-9-(2-hydroxyacetyl)-4-methoxy-8,10-dihydro-7H tetracene-5,12-dione]
viability at 0.52 µM (U-87 μMG cells): 75.6%
clinical results vs systemic administration (gliomas; intracerebral administration, stage III or IV gliomas, Ommaya reservoir): Significantly better results
clinical efficacy in certain brain tumors, such as gliomas (gliomas; systemic administration): very limited efficacy
neurotoxicity (gliomas; very high systemic doses): highly neurotoxic
incidence of congestive heart failure [1]: lower incidence of congestive heart failure

Cc1ccc(S(=O)(=O)NC(=O)NN2CC3CCCC3C2)cc1 (stereo not drawn) [Gliclazide, 1-(3,3a,4,5,6,6a-hexahydro-1H-cyclopenta[c]pyrrol-2-yl)-3-(4-methylphenyl) sulfonylurea]
drug interaction with Doxorubicin (MCF-7 cells; [2]): strong or very strong synergy

COc1ccc2c(c1)C(=O)N(CCc1ccc(S(=O)(=O)NC(=O)NC3CCCCC3)cc1)C(=O)C2(C)C [Gliquidone]
drug interaction with Doxorubicin (MCF-7 cells; 100 μM analog in combination with Doxorubicin (0.225-0.900 μM)): additive effect or slight antagonism
drug interaction with Doxorubicin (MCF-7 cells; Gliquidone with Doxorubicin, dose combinations other than 100 μM): synergistic effects

COc1ccc(Cl)cc1C(=O)NCCc1ccc(S(=O)(=O)NC(=O)NC2CCCCC2)cc1 [Glyburide]
effect in MDA-MB-231 cells (MDA-MB-231 cells): cytostatic effect
drug interaction with Doxorubicin (MCF-7 cells; [2]): strong or very strong synergy

Cc1ccc(S(=O)(=O)NC(=O)NN2CCCCCC2)cc1 [Tolazamide, 1-(azepan-1-yl)-3-(4-methylphenyl) sulfonylurea]
drug interaction with Doxorubicin (MCF-7 cells; [2]): strong or very strong synergy
